Values joined by “and” are separate entries in the source; they are usually repeats but may differ in a detail not shown here. Equal entries are not always repeated.
Assays:
Assay type in all cases: cell-based
[1] = molecular target: T1, AaegOR55 (Aedes aegypti, UniProt Q16T12); experiment: Two-electrode voltage clamp of Xenopus laevis oocytes expressing AaegOR55/Orco (blends, unitary compounds, concentration-response); conditions: AaegOR55; compounds of blend Indoles 1; individual oocytes (Oocyte 1-7)
T1 sequence (Q16T12 10-392): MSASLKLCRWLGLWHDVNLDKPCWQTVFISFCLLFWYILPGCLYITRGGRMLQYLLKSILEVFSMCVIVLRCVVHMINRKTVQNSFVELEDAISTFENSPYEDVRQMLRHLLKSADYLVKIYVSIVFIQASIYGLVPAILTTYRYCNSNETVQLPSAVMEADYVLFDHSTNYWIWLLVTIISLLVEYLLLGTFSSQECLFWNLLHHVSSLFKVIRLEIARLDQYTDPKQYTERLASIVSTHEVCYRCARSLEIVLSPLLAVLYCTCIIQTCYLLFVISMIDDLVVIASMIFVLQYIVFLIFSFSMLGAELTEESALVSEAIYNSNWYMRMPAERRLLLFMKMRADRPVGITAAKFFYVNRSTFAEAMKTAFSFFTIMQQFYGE
T1 sequence (Q178U6 1-478 partner): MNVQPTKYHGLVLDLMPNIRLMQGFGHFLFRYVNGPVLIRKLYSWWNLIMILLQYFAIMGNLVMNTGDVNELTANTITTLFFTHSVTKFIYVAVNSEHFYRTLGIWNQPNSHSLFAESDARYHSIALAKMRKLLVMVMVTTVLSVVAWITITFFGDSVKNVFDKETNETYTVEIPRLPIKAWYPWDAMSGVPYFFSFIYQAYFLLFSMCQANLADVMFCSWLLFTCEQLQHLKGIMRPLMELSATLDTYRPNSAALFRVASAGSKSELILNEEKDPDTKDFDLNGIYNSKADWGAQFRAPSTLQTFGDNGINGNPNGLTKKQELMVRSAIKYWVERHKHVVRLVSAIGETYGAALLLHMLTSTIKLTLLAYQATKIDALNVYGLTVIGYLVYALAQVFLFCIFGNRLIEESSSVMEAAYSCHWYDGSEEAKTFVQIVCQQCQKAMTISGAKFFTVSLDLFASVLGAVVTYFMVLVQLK
Text: (§1) The coding regions of ten AaegOR genes of interest (S3 File) and AaegOrco were synthesized by Twist Bioscience (San Francisco, CA, USA) and cloned into the pENTR plasmid. The Gateway LR directional cloning system (Invitrogen Corp., Carlsbad, CA, USA) was utilized to subclone AaegOR coding regions into the pSP64t-RFA oocyte expression plasmid. Plasmids were purified using the GeneJet Plasmid Miniprep Kit (ThermoFisher Scientific, Waltham, MA, USA). Purified plasmids were sequenced in both directions to confirm coding regions.
(§2) Chemical compounds (S6 File) used in the deorphanization of AaegORs were purchased from Acros Organics (Morris, NJ, USA), Alfa Aesar (Ward Hill, MA, USA), and ThermoFisher Scientific (Waltham, MA, USA) at the highest purity available. Compounds were stored as 1M stocks in 100% DMSO. Serial dilutions of each compound were prepared in 10% DMSO and blended by chemical class.
(§3) pSP64t-RFA: AaegOR clones were linearized using Xbal, and cRNAs were synthesized using the mMESSAGE mMACHINE ® SP6 kit (Life Technologies, Carlsbad, CA, USA). Xenopus laevis stage V-VII oocytes purchased from Xenopus1 (Dexter, MI, USA) were stored at 18°C in Incubation medium (ND96 96 with 5% dialyzed horse serum, 50μg/mL gentamycin, 100μg/mL streptomycin, 100μg/mL penicillin, and 550μg/mL sodium pyruvate). 30nL of cRNA was injected into multiple oocytes using a microinjection syringe pump (World Precision Instruments, Sarasota, FL, USA) maintained at 18°C for 48–72 hrs. Odorant blends were perfused across individual oocytes for 10–15 seconds, held at a resting membrane potential of -80 mV using an OC-725C oocyte clamp (Warner Instruments, LLC, Hamden, CT, USA). Induced currents were measured indirectly using the two-electrode voltage clamp technique (TEVC). Following each stimulus, currents were allowed to return to baseline before further stimulation. Data was captured using the Digidata 1550 B digitizer and PClamp10 software (Molecular Devices, San Jose, CA, USA). Concentration-response curves were generated by perfusing unitary odorants over oocytes at increasing concentrations from [10^-3M] to [10^-9M]. Data were analyzed using GraphPad Prism 8 (GraphPad Software Inc., La Jolla, CA, USA). At least two biological replicates were conducted at each concentration and for each compound. Data for at least seven oocytes responding to each compound was analyzed (S7 File).

[2] = molecular target: T2, AaegOR10 (Aedes aegypti, UniProt Q177X3); experiment: Two-electrode voltage clamp of Xenopus laevis oocytes expressing AaegOR10/Orco (blends, unitary compounds, concentration-response); conditions: unitary compounds of Indoles 1; individual oocytes 1-9 (replicates)
T2 sequence (Q177X3 1-375): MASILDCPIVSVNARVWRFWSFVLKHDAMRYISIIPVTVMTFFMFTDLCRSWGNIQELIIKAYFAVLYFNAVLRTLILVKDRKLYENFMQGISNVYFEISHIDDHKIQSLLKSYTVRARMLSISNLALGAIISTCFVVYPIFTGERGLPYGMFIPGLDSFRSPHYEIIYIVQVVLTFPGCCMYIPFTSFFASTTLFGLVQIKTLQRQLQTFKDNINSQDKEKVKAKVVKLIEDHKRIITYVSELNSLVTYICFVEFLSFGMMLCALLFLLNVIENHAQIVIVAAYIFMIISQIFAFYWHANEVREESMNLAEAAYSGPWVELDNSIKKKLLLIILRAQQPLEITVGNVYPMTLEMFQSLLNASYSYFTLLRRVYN
T2 sequence (Q178U6 1-478 partner): T1 sequence (Q178U6 1-478 partner)
Text: as §1, §2, §3

[3] = molecular target: T3, AaegOR13 (Aedes aegypti, UniProt Q16Z13); experiment: Two-electrode voltage clamp of Xenopus laevis oocytes expressing AaegOR13/Orco (blends, unitary compounds, concentration-response); conditions: unitary compounds; individual oocytes 1-7
T3 sequence (Q16Z13 1-389): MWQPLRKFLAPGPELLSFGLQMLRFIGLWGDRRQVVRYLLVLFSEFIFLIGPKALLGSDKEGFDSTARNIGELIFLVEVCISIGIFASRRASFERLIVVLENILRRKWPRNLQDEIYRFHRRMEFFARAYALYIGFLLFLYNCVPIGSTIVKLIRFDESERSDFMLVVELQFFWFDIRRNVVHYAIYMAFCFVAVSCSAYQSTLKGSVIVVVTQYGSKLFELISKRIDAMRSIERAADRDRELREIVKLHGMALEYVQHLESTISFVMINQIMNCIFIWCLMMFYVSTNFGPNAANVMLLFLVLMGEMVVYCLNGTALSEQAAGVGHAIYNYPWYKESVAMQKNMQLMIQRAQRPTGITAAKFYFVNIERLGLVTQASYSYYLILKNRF
T3 sequence (Q178U6 1-478 partner): T1 sequence (Q178U6 1-478 partner)
Method in brief: (§4)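 Xenopus oocytes injected with cRNA for AaegOR plus Orco, kept 48–72 hrs at 18°C, clamped at -80 mV by TEVC. Odorant blends or single compounds (10% DMSO dilutions) perfused 10–15 s; concentration-response from 10^-3M to 10^-9M, ≥7 responding oocytes, ≥2 biological replicates.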

[4] = molecular target: T4, AaegOR15 (Aedes aegypti, UniProt A0A6B9QIR2); experiment: Two-electrode voltage clamp of Xenopus laevis oocytes expressing AaegOR15/Orco (blends, unitary compounds, concentration-response); conditions: unitary compounds of Alcohols 2; individual oocytes 1-10 (replicates)
T4 sequence (A0A6B9QIR2 1-390): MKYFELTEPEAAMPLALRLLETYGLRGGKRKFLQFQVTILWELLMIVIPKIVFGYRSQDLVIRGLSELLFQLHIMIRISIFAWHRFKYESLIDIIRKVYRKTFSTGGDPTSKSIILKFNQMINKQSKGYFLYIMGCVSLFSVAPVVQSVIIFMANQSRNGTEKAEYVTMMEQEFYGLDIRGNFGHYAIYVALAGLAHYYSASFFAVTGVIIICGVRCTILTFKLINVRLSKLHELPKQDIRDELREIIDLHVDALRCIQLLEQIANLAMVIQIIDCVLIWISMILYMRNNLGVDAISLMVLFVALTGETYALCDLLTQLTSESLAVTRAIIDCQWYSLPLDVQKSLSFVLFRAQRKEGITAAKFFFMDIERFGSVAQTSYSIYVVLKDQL
T4 sequence (Q178U6 1-478 partner): T1 sequence (Q178U6 1-478 partner)
Method in brief: as §4

[5] = molecular target: T5, AaegOR28 (Aedes aegypti, UniProt Q0IGE1); experiment: Two-electrode voltage clamp of Xenopus laevis oocytes expressing AaegOR28/Orco (blends, unitary compounds, concentration-response); conditions: for Raw Data (Responses in nA), Alcohols 3 unitary compounds / Raw Data (Responses in nA), concentration-response: AaegOR28; for Raw Data (Responses in nA), Alcohols 3 unitary compounds: compounds of blend Alcohols 3, individual oocytes 1-10; for Raw Data (Responses in nA), concentration-response: individual oocytes 1-8
T5 sequence (Q0IGE1 1-394): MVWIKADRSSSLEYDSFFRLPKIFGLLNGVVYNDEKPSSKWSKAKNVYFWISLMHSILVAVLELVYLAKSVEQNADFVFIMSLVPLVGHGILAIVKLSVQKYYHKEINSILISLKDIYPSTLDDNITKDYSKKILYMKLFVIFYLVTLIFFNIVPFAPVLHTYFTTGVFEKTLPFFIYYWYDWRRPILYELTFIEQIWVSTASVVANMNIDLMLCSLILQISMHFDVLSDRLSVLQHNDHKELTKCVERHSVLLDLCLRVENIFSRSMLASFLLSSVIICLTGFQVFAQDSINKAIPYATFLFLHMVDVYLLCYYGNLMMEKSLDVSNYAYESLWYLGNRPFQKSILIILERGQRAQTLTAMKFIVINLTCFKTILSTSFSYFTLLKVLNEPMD
T5 sequence (Q178U6 1-478 partner): T1 sequence (Q178U6 1-478 partner)
Text: as §1, §2, §3

For c1ccc2[nH]ccc2c1 [indole], the “Raw Data (Responses in nA), Indoles 1 unitary compounds” value [1] was 40.0 nA (2×) and 15.0 nA and 30.0 nA (2×) and 25.0 nA (2×), the “Raw response, unitary compounds of blend Indoles 1” value [2] was 0.0 nA (6×) and 80.0 nA and 10.0 nA (2×) and the “Raw data (Responses in nA), unitary compounds of Indoles 1, Alcohols 1, Alcohols 3” value (from here on “Raw data … Alcohols 1, Alcohols 3”) [3] was 0.0 nA (3×) and 5.0 nA (4×).

With CC(C)C12CCC(C)(CC1)O2 [1,4-Cineole] the “Raw data (Responses in nA), compounds of blend Alcohols 2” value (from here on “Raw data (Responses in nA), compounds”) [4] was 0.0 nA (6×) and 10.0 nA (4×), the “Raw Data (Responses in nA), Alcohols 3 unitary compounds” value (from here on “Raw Data … Alcohols 3 unitary compounds”) [5] was 0 nA and the “Raw data … Alcohols 1, Alcohols 3” value [3] was 0.0 nA.

isoeugenol was tested, and the “Raw data (Responses in nA), compounds” value [4] was 0.0 nA (5×) and 10.0 nA (2×) and 20.0 nA (3×), the “Raw Data … Alcohols 3 unitary compounds” value [5] was 0 nA and the “Raw data … Alcohols 1, Alcohols 3” value [3] was 0.0 nA and 110.0 nA and 25.0 nA and 40.0 nA and 35.0 nA (2×) and 15.0 nA.

With CCC(C)(O)CCCC(C)C (centres unmarked) [tetrahydrolinalool, Tetrahydrolinalool] the “Raw data (Responses in nA), compounds” value [4] was 0.0 nA (3×) and 20.0 nA (4×) and 40.0 nA and 10.0 nA and 5.0 nA, the EC50 ([5]; AaegOR28/Orco expressing oocytes, TEVC, concentration-response of normalized current) was 44.1 µM and the “Raw Data … Alcohols 3 unitary compounds” value [5] was 30 nA (2×) and 25 nA and 35 nA and 20 nA (2×) and 50 nA and 40 nA and 45 nA and 90 nA. The “Raw Data (Responses in nA), concentration-response” value (from here on “Raw Data … concentration-response”) ([5]; concentration 1e-6) was 5 nA (4×) and 0 nA (2×) and 10 nA and 20 nA, the “Raw Data … concentration-response” value ([5]; concentration 5e-6) was 30 nA and 10 nA (2×) and 20 nA (4×) and 50 nA and the “Raw Data … concentration-response” value ([5]; concentration 1e-5) was 40 nA (3×) and 30 nA (2×) and 50 nA and 45 nA and 95 nA. The “Raw Data … concentration-response” value ([5]; concentration 5e-5) was 150 nA and 200 nA and 70 nA and 230 nA and 220 nA and 90 nA and 180 nA and 260 nA, the “Raw Data … concentration-response” value ([5]; concentration 0.0001) was 290 nA and 320 nA and 140 nA and 330 nA and 400 nA and 100 nA and 220 nA and 310 nA and the “Raw Data … concentration-response” value ([5]; concentration 0.0005) was 380 nA and 530 nA and 180 nA and 400 nA and 480 nA and 105 nA and 230 nA and 340 nA. The “Raw Data … concentration-response” value ([5]; concentration 0.001) was 400 nA and 440 nA (2×) and 200 nA and 500 nA and 110 nA and 350 nA and 300 nA and the “Raw data … Alcohols 1, Alcohols 3” value [3] was 0.0 nA.

From PMC11073699, “Odorant receptors for floral- and plant-derived volatiles in the yellow fever mosquito, Aedes aegypti (Diptera: Culicidae)” (PLOS ONE, 2024)
